Laboratory results published in patent US10745360B2, “Quinoxaline compounds, method for preparing the same and use thereof” (Development Center for Biotechnology, priority 2014, dated 2020).

Experiments:
B-Raf kinase = target: T1, B-Raf kinase (Homo sapiens, UniProt P15056); experiment: B-Raf kinase assay ([33P] incorporation into MEK1 K97R); format: biochemical; conditions: recombinant B-Raf, 8 μM ATP, 30 min, 30° C.; read-out: IC50 ranking against B-Raf kinase
T1 construct: purchased Upstate Biotechnology
Outline: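 Recombinant B-Raf (5 ng) phosphorylating MEK1 K97R (500 ng) with 8 μM ATP plus [33P]ATP in Tris/HCl pH 7.5 buffer, 30 min at 30° C. Filter-captured 33P counted by scintillation; IC50 from 3-fold serial dilutions run in duplicate.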

B-Raf^V600E kinase = target: T2, B-Raf^V600E kinase (Homo sapiens, UniProt P15056, V600E); experiment: B-Raf V600E kinase assay ([33P] incorporation into MEK1 K97R); format: biochemical; conditions: recombinant B-Raf^V600E, 8 μM ATP, 30 min, 30° C.; read-out: IC50 ranking against B-Raf^V600E kinase
T2 construct: purchased Upstate Biotechnology
Outline: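 Recombinant B-Raf V600E (5 ng) phosphorylating MEK1 K97R (500 ng) with 8 μM ATP plus [33P]ATP in Tris pH 7.5 buffer, 30 min at 30 °C. Filter-bound 33P counted by scintillation; IC50 from 3-fold dilution series in duplicate.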

C-Raf kinase = target: T3, C-Raf kinase (Homo sapiens, UniProt P04049); experiment: C-Raf kinase assay ([33P] incorporation into MEK1 K97R); format: biochemical; conditions: recombinant C-Raf, 8 μM ATP, 30 min, 30° C.; read-out: IC50 ranking against C-Raf kinase
T3 construct: purchased Upstate Biotechnology
Outline: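 Recombinant C-Raf (2 ng) phosphorylating MEK1(K97R) with 8 μM ATP plus [33P]ATP, pH 7.5 Tris buffer, 30 min at 30° C. Acid-stopped, filter-captured 33P counted by scintillation; IC50 from 3-fold dilution series run in duplicate.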

[1] = test system: B-Raf^V600E mutant A375 melanoma cell; experiment: Cell proliferation assay (CELLTITER 96), A375; format: cell-based; conditions: Homo sapiens, A-375; A375, 72 hours; read-out: Cytotoxicity (IC50 Ranking) A375 (B-Raf^V600E)
Outline: (§1)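 Cells seeded overnight (A375 and COLO205 at 2000, SK-MEL-2 at 4000 cells/well), then exposed to increasing compound concentrations for 72 h at 37° C. Viability read by MTS absorbance at 490 nm after 4 h reagent; IC50 from curve fit of percent growth inhibition versus concentration.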

[2] = test system: B-Raf^V600E mutant COLO205 colon cancer cell; experiment: Cell proliferation assay (CELLTITER 96), COLO205; format: cell-based; conditions: Homo sapiens, COLO 205; COLO205, 72 hours; read-out: Cytotoxicity (IC50 Ranking) COLO205 (B-Raf^V600E)
Outline: as §1

[3] = test system: SK-MEL-2 melanoma cell with wild type B-Raf (B-Raf^wt) and NRAS^Q61R mutation; experiment: Cell proliferation assay (CELLTITER 96), SK-MEL-2; format: cell-based; conditions: Homo sapiens; SK-MEL-2, 72 hours; given as bound; read-out: Cytotoxicity (IC50 Ranking) SK-MEL-2 (NRAS^Q61R, B-Raf^wt)
Outline: as §1

T1 sequence (P15056 whole entry): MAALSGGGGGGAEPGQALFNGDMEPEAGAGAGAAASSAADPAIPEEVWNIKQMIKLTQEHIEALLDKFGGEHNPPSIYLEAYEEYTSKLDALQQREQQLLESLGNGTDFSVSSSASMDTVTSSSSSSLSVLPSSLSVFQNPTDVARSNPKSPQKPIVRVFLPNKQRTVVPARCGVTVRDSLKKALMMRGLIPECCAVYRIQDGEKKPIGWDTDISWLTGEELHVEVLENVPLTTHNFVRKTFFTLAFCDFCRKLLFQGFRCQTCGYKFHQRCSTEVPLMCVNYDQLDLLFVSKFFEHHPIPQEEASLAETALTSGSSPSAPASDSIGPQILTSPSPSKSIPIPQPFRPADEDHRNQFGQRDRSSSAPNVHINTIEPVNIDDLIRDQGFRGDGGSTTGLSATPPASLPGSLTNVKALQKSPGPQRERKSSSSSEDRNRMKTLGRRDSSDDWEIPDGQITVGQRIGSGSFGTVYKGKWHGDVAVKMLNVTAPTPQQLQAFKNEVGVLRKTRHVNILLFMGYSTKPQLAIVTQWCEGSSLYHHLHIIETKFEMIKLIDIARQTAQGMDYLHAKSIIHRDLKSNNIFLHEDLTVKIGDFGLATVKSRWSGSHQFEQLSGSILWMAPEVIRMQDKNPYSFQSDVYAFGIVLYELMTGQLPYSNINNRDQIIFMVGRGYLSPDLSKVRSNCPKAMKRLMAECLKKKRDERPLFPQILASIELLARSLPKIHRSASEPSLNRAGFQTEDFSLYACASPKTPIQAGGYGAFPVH
T3 sequence (P04049 whole entry): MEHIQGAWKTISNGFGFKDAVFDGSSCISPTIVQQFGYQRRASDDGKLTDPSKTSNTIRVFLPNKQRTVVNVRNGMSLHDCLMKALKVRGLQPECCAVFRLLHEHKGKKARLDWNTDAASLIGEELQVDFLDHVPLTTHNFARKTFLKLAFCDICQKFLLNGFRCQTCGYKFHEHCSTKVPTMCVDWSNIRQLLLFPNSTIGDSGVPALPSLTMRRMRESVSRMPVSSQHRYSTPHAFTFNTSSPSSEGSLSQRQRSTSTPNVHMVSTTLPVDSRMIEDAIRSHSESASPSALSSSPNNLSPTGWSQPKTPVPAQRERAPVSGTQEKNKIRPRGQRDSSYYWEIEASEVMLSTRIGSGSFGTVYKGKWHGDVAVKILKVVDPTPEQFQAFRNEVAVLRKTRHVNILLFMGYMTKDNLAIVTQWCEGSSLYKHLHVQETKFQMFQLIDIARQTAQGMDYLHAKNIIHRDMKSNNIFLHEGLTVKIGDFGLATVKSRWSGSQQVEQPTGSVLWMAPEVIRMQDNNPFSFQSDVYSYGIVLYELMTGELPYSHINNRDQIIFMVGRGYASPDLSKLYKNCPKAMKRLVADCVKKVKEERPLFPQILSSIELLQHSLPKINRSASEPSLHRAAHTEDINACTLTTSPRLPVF
T2 sequence (P15056 whole entry V600E): as the sequence (P15056 whole entry) above, with V600E counted along it

For `CCCS(=O)(=O)Nc1ccc(F)c(Nc2ccc3ncc(OC)nc3c2C(=O)O)c1F` [compound 30, 6-(2,6-difluoro-3-(propylsulfonamido)phenylamino)-3-methoxyquinoxaline-5-carboxylic acid], the IC50 (B-Raf kinase) was 300 to 1000 nM, the IC50 (B-Raf^V600E kinase) was 300 to 1000 nM and the IC50 (C-Raf kinase) was 300 to 1000 nM. It also gave an IC50 [1] of 1000 to 10000 nM, an IC50 [2] of 1000 to 10000 nM and an IC50 [3] of over 10000 nM.

With `CCCS(=O)(=O)Nc1cc(Nc2ccc3ncc(OC)nc3c2C#N)ccc1F` [compound 22, N-(5-(5-cyano-3-methoxyquinoxalin-6-ylamino)-2-fluorophenyl)propane-1-sulfonamide] the IC50 (B-Raf kinase) was under 300 nM, the IC50 (B-Raf^V600E kinase) was under 300 nM and the IC50 (C-Raf kinase) was under 300 nM. It also gave an IC50 [1] of under 300 nM, an IC50 [2] of under 300 nM and an IC50 [3] of over 10000 nM.

With `CCCS(=O)(=O)Nc1ccc(F)c(Nc2ccc3ncc(OCCN4CCOCC4)nc3c2C#N)c1F` [compound 16, N1-(3-{[5-cyano-3-(2-morpholinoethoxy)-6-quinoxalinyl]amino)-2,4-difluorophenyl)-1-propanesulfonamide] the IC50 (B-Raf kinase) was under 300 nM, the IC50 (B-Raf^V600E kinase) was under 300 nM and the IC50 (C-Raf kinase) was under 300 nM. For the same compound, the IC50 [1] was under 300 nM, the IC50 [2] was under 300 nM and the IC50 [3] was over 10000 nM.

For `CCOc1cnc2ccc(Nc3c(F)ccc(NS(=O)(=O)CCCF)c3F)c(C#N)c2n1` [compound 34, N-(3-(5-cyano-3-ethoxyquinoxalin-6-ylamino)-2,4-difluorophenyl)-3-fluoropropane-1-sulfonamide], the IC50 (B-Raf kinase) was under 300 nM, the IC50 (B-Raf^V600E kinase) was under 300 nM and the IC50 (C-Raf kinase) was under 300 nM. For the same compound, the IC50 [1] was under 300 nM, the IC50 [2] was under 300 nM and the IC50 [3] was over 10000 nM.
